According to patent US11673889B2, “Substituted imidazo[4,5-c][1,8]naphthyridines as phosphodiesterase inhibitors” (Nanjing Zhengxiang Pharmaceuticals Co., Ltd., priority 2019, dated 2023):
Like-named read-outs stand apart in the source and are kept apart here.

Key:
[1] = Liver microsome stability, human; format: in vitro ADME; details: for Hepatic extraction ratio Re: Human liver microsome; for Half-life t1/2 (min): Human liver microsome 0.5 mg/mL, NADPH and UDPGA, 37° C.
Method: (§1) Liver microsome assay was used to evaluate the metabolic stability of I-VI. The test article at the concentration of […] was incubated with 0.5 mg/mL liver microsome in the presence of NADPH and UDPGA as the co-factors for 0, 15, 30, 45 and 60 minutes. The incubation was carried out at 37° C. with 5% CO2 and saturating humidity. Disappearance of the test article was monitored by LC/MS/MS. the disappearance half-life (t1/2), intrinsic clearance and hepatic extraction ratio were determined.

human soluble ENPP1 [2] = target: T1, human soluble ENPP1 (Homo sapiens, UniProt P22413); experiment: ENPP1 activity assay using p-Nitrophenyl-5′-AMP as a substrate; format: biochemical
T1 construct: 20 ng of human soluble ENPP1
T1 sequence (P22413 103-925 limits assumed): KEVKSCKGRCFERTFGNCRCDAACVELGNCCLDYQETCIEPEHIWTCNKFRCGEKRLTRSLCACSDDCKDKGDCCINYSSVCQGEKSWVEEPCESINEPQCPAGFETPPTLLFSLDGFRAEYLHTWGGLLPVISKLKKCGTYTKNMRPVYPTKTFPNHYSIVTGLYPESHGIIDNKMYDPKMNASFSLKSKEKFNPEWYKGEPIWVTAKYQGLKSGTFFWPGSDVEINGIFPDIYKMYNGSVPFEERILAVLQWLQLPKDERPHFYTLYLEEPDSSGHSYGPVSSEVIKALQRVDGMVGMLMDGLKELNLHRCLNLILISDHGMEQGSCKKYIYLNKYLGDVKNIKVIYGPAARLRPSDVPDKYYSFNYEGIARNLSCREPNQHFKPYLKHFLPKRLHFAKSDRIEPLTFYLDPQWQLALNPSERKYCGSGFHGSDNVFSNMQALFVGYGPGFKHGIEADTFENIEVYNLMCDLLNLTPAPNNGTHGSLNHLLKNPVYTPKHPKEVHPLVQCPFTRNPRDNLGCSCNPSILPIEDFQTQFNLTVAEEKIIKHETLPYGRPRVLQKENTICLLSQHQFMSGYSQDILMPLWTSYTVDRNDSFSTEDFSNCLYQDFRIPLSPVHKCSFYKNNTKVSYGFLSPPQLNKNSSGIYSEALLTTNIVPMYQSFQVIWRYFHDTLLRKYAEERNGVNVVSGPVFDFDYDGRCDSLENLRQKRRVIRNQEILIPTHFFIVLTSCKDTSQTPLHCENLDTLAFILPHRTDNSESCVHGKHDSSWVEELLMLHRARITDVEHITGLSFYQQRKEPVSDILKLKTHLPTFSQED
How it was run: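 Human soluble ENPP1 (35 ng) preincubated with inhibitor 30 min at RT, then p-nitrophenyl-5′-AMP added (3 mM solution, 2× final) and incubated 1 h at RT. p-Nitrophenolate release read at OD 405 nm; % inhibition vs no-inhibitor and blank controls, IC50 from four-parameter fit.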

human soluble ENPP1 [3] = target: T1, human soluble ENPP1; experiment: ENPP1 activity assay using p-Nitrophenyl-5′-TMP as a substrate; format: biochemical
How it was run: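 Human soluble ENPP1 (20 ng) was preincubated with inhibitor for 30 min at room temperature. TMP-pNP was then added as a 2 mM […] solution and incubated 1 h at RT, with p-nitrophenol formation read by OD. IC50 came from four-parameter fits of % inhibition relative to no-inhibitor and blank controls.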

ENPP-1, MDA-MB-231 cells = target: T2, ENPP-1, MDA-MB-231 cells (Homo sapiens, UniProt P22413); experiment: cell-based; details: for inhibition at 20 µM: MDA-MB-231, read-out: % Inhibition (at 20 μM)
T2 sequence (P22413 1-925): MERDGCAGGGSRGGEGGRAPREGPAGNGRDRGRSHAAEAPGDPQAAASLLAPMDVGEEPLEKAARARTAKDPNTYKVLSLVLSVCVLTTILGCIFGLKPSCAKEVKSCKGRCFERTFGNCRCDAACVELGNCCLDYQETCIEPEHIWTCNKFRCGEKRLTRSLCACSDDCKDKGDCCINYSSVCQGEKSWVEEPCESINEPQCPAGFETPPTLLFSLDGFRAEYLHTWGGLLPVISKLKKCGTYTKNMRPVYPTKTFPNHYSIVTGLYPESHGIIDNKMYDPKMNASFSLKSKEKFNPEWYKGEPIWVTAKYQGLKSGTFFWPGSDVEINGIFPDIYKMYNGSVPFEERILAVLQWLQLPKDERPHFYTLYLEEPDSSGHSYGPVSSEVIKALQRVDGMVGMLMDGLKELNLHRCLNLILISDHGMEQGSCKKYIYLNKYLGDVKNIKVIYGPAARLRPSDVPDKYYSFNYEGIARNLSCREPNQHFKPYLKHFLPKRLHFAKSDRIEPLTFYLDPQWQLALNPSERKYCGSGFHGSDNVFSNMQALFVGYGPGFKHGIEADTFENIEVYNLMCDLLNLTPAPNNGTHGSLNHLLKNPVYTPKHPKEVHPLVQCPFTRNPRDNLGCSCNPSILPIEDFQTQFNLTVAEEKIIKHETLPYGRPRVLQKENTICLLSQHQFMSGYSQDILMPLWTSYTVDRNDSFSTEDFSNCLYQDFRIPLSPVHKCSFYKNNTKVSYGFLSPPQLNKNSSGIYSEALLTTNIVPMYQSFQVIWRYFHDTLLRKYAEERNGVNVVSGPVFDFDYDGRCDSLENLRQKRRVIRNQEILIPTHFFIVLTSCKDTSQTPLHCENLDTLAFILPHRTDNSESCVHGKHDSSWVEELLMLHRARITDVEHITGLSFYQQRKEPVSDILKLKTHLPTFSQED

[4] = Liver microsome stability, mouse; format: in vitro ADME
Method: as §1

ENPP-1, Saos-2 cells = target: T3, ENPP-1, Saos-2 cells (Homo sapiens, UniProt P22413); experiment: Cellular enzymatic assay of ENPP-1 inhibitors using TMP-pNP as substrate, Saos-2 cells; format: cell-based; details: for inhibition at 20 µM: SAOS-2, read-out: % Inhibition (@20 μM)
T3 construct: ENPP-1 were mainly expressed on the surface of cell membrane; endogenous in cells; host or cells: Saos-2
T3 sequence (P22413 1-925): T2 sequence (P22413 1-925)
Method: (§2) ENPP-1 were mainly expressed on the surface of cell membrane where it hydrolytes 2′3′-cGAMP to generate 5′-GMP and 5′-AMP. ENPP-1 also has the ability to hydrolyzes artificial phosphoric acid ester TMP-pNP to nucleotide-5′-monophosphate and p-nitrophcnol there, which is a chromogenic product.
(§3) 8 point of different concentrations of each inhibitor were prepared with the final assay concentrations starting at 20 μM. 3× series dilution by DMEM medium without FBS was applied. Prior to adding inhibitors, 75000 cells per well were incubated at 37° C., 5% CO2 in DMEM for 24 hours. After removing the supernatant medium, 50 μL inhibitor solution was added into each well with cultured cells and incubate at 37° C., 5% CO2 for 60 minutes.
(§4) The IC50 values for percent inhibition versus compound concentration are determined by fitting the inhibition curves using a four-parameter variable slope model in GraphPad Prism® 8.

ENPP-1, HEK293 cells = target: T4, ENPP-1, HEK293 cells (Homo sapiens, UniProt P22413); experiment: Cellular enzymatic assay of ENPP-1 inhibitors using TMP-pNP as substrate, HEK 293 cells; format: cell-based
T4 construct: ENPP-1 were mainly expressed on the surface of cell membrane; endogenous in cells; host or cells: HEK293
T4 sequence (P22413 1-925): T2 sequence (P22413 1-925)
Method: as §2, §3, §4

[5] = test system: cGAMP activated THP-1 cells; experiment: ENPP1 inhibitors screening on cGAMP activated THP-1 cells (IFN-β ELISA); format: cell-based; details: THP-1 cells with 2′3′-cGAMP, 24 hours, FIGS. 1A-1E
Method: THP-1 cells from bulk cultures were counted and suspended in RPMI 1640, 20% FBS, 2.5 mM L-alanyl-L-glutamine at a concentration of 5.5×10^6 cells/mL. The THP-1 cells were subsequently seeded into 96 well round bottom plates 180 μL/well (1×10^6 cells per well), incubated for 1 hour at 37° C., 5% CO2.
Test compounds were screened in triplicate on THP-1 cells at a final concentration of 10 μM. A working solutions at 0.2 mM. Each well contains 180 μL of THP-1 cell suspension, 10 μL (30 μM, 40 μM or 50 μM) 2′3′-cGAMP (InvivoGen, catalog #tlrl-nacga23) solution (600 μM, 800 μM or 1000 μM) and 10 μL test compound working solution. Incubate for 1 hour.
Vehicle control wells contain 2′3′-cGAMP at concentrations of […] and 50 μM without any test compound. Positive control, 2′3′-cGAMP or 2′,3′-cGAM(PS)2 (Rp/Sp) (InvivoGen, cat #tlrl-nacga2srs) at 40 μM and 80 μM (final concentration).
The final assay volume were 200 μL/well contains: 1) THP-1 cells=180 μL, 2) test compounds=10 μL, 3) 2′3′-cGAMP or 2′3′-cGAM(PS)2 (Rp/Sp) or vehicle control=10 μL.
After incubation for 24 hours at 37° C., 5% CO2, the supernatants were harvested at 200×g for 10 minutes. Cell culture supernatants were then transferred to a clean plate and stored at −80° C. until ready to analyze for IFN-β levels. The IFN-β levels in cell culture supernatants were determined by ELISA kits (PBL Assay Science, catalog #41410) according to the manufacturer's instructions.
The % increase measured for IFN-β in cells treated by the test compounds 12, 48, 89, 103 and 121 relative to that of untreated cells were tested (as shown in FIGS. 1A-1E).

[6] = Mouse liver microsome 0.5 mg/mL, NADPH and UDPGA, 37° C.
[7] = HEK293, read-out: Inhibition (at 20 μM)

| IC50 (human soluble ENPP1 [2]) | IC50 (human soluble ENPP1 [3]) | IC50 (ENPP-1, MDA-MB-231 cells) | inhibition at 20 µM (ENPP-1, MDA-MB-231 cells) | SMILES | Hepatic extraction ratio Re [1] | Half-life t1/2 (min) [1] | Hepatic extraction ratio Re ([4]; Mouse liver microsome) | Half-life t1/2 (min) [4, 6] | inhibition at 20 µM (ENPP-1, Saos-2 cells) | inhibition at 20 µM (ENPP-1, HEK293 cells; [7]) | % increase measured for IFN-β relative to that of untreated cells [5] | half-life ([4]; liver microsomes, Mouse liver microsome 0.5 mg/mL, NADPH and UDPGA, 37° C., read-out: Half-life t1/2) | microsomal CLint ([4]; liver microsomes, Mouse liver microsome, read-out: Intrinsic clearance Cl′int, (μL/min/mg protein)) | IC50 (ENPP-1, Saos-2 cells) | IC50 (ENPP-1, HEK293 cells) | inhibition at 20 µM (ENPP-1, HEK293 cells; HEK293, HEK 293 cells, at 20 μM, read-out: Inhibition (at 20 μM)) |
| --- | --- | --- | --- | --- | --- | --- | --- | --- | --- | --- | --- | --- | --- | --- | --- | --- |
| 27 nM | 1.1 nM |  |  | COc1cc2ncc3ncn(Cc4ccc(S(N)(=O)=O)nc4)c3c2cc1OC [Compound 10, 5-((7,8-dimethoxy-1H-imidazo[4,5-c]quinolin-1-yl)methyl)pyridine-2-sulfonamide] | 0 | ∞ |  |  |  |  |  |  |  |  |  |  |
| 5.9 nM | 1.7 nM | 2900 nM | 50% | COc1cc2ncc3[nH]c(=O)n(Cc4ccc(S(N)(=O)=O)cc4)c3c2cc1OC [Compound 1, 4-((7,8-dimethoxy-2-oxo-2,3-dihydro-1H-imidazo[4,5-c]quinolin-1-yl)methyl)benzenesulfonamide] |  |  | 0 | ∞ | 32% | 19% |  |  |  |  |  |  |
| 31 nM | 9.4 nM | 8.2 nM | 91% | COc1ccc2c(ncc3[nH]c(=O)n(Cc4ccc(P(=O)(O)O)c(F)c4)c32)n1 [Compound 121, (2-fluoro-4-((7-methoxy-2-oxo-2,3-dihydro-1H-imidazo[4,5-c][1,8]naphthyridin-1-yl)methyl)phenyl)phosphonic acid] |  |  |  |  |  |  | potently increased the IFN-β levels at very low concentrations |  |  |  |  |  |
| 0.06 nM | 0.09 nM | 34 nM | 87% | COc1ccc2c(ncc3[nH]c(=O)n(Cc4c(F)cc(S(N)(=O)=O)cc4F)c32)n1 [Compound 103, 3,5-difluoro-4-((7-methoxy-2-oxo-2,3-dihydro-1H-imidazo[4,5-c][1,8]naphthyridin-1-yl)methyl)benzenesulfonamide] |  |  |  |  |  |  | potently increased the IFN-β levels at very low concentrations |  |  |  |  |  |

| SMILES | IC50 (human soluble ENPP1 [2]) | IC50 (human soluble ENPP1 [3]) | IC50 (ENPP-1, MDA-MB-231 cells) | inhibition at 20 µM (ENPP-1, MDA-MB-231 cells) | Hepatic extraction ratio Re [1] | Half-life t1/2 (min) [1] | Hepatic extraction ratio Re ([4]; Mouse liver microsome) | Half-life t1/2 (min) [4, 6] | inhibition at 20 µM (ENPP-1, Saos-2 cells) | inhibition at 20 µM (ENPP-1, HEK293 cells; [7]) | % increase measured for IFN-β relative to that of untreated cells [5] | half-life ([4]; liver microsomes, Mouse liver microsome 0.5 mg/mL, NADPH and UDPGA, 37° C., read-out: Half-life t1/2) | microsomal CLint ([4]; liver microsomes, Mouse liver microsome, read-out: Intrinsic clearance Cl′int, (μL/min/mg protein)) | IC50 (ENPP-1, Saos-2 cells) | IC50 (ENPP-1, HEK293 cells) | inhibition at 20 µM (ENPP-1, HEK293 cells; HEK293, HEK 293 cells, at 20 μM, read-out: Inhibition (at 20 μM)) |
| --- | --- | --- | --- | --- | --- | --- | --- | --- | --- | --- | --- | --- | --- | --- | --- | --- |
| COc1cc2ncc3ncn([C@H](C)c4ccc(S(N)(=O)=O)cc4)c3c2cc1OC [Compound 11a, (R)-4-(1-(7,8-dimethoxy-1H-imidazo[4,5-c]quinolin-1-yl)ethyl)benzenesulfonamide] | 2.5 nM | 0.88 nM | 600 nM | 79% |  |  | 0.85 |  | 87% |  |  | 11 min | 131 µL/min/mg | 1200 nM | 2100 nM | 84% |
| COc1ccc2c(c1)ncc1[nH]c(=O)n(Cc3ccc(S(N)(=O)=O)cc3)c12 [Compound 35, 4-((7-methoxy-2-oxo-2,3-dihydro-1H-imidazo[4,5-c]quinolin-1-yl)methyl)benzenesulfonamide] | 35 nM | 0.37 nM | 1500 nM | 73% | 0 | ∞ | 0 | ∞ | 76% | 51% |  |  |  | 5600 nM | 3400 nM |  |
